From patent EP0908457B1, “3-(1,2-benzisothiazol- and isoxazol-5-Y1)-2,4(1H,3H)-pyrimidinedione or thione and 3-(1,2-benzisothiazol- and isoxazol-5-y1)-4(3H)-pyrimidinone or thione herbicidal agents” (BASF AKTIENGESELLSCHAFT, priority 1997, dated 1999)

Experiments:
Type in all cases: in vivo
[1] = test system: Monochoria vaginalis, Presl.; assay: Preemergence weed control under flooded paddy conditions, MOOVA (Monochoria); conditions: flooded paddy; for MOOVA: herbicidal effect rating 0-9, three to four weeks after treatment; for herbicidal effect rating, MOOVA: meaning of each grade not given here
Cyperus iria = assay: Preemergence weed control under flooded paddy conditions, CYPIR (Rice Flatsedge); conditions: flooded paddy; for CYPIR: herbicidal effect rating 0-9, three to four weeks after treatment; for herbicidal effect rating, CYPIR: meaning of each grade not given here
[2] = test system: Cyperus serotinus, Rottb.; assay: Preemergence weed control under flooded paddy conditions, CYPSE (Flatsedge); conditions: for CYPSE: herbicidal effect rating 0-9, three to four weeks after treatment; for herbicidal effect rating, CYPSE: meaning of each grade not given here
[3] = test system: Echinochloa oryzoides (Ard.) Fritsch.; assay: Preemergence weed control under flooded paddy conditions, ECHORC (Watergrass (Calif.)); conditions: flooded paddy; for ECHORC: herbicidal effect rating 0-9, three to four weeks after treatment; for herbicidal effect rating, ECHORC: meaning of each grade not given here
Sagittaria pygmaea, L. = assay: Preemergence weed control under flooded paddy conditions, SAGPY (Arrowhead (Pygmaea)); conditions: flooded paddy; for SAGPY: herbicidal effect rating 0-9, three to four weeks after treatment; for herbicidal effect rating, SAGPY: meaning of each grade not given here
[4] = Rate 0.0320 kg/ha, preemergence, rated three to four weeks after treatment
[5] = Rate 0.0620 kg/ha, preemergence, rated three to four weeks after treatment
[6] = Rate 0.1250 kg/ha, preemergence, rated three to four weeks after treatment
[7] = Rate 0.2500 kg/ha, preemergence, rated three to four weeks after treatment
[8] = 0.0320 kg/ha, preemergence weeds
[9] = 0.0620 kg/ha, preemergence weeds
[10] = 0.1250 kg/ha, preemergence weeds
[11] = 0.2500 kg/ha, preemergence weeds
[12] = 0.0320 kg/ha, preemergence, rated three to four weeks after treatment
[13] = 0.0620 kg/ha, preemergence, rated three to four weeks after treatment
[14] = 0.1250 kg/ha, preemergence, rated three to four weeks after treatment
[15] = 0.2500 kg/ha, preemergence, rated three to four weeks after treatment
[16] = Rate 0.0320 kg/ha, preemergence, rated 3-4 weeks after treatment
[17] = Rate 0.0620 kg/ha, preemergence, rated 3-4 weeks after treatment
[18] = Rate 0.1250 kg/ha, preemergence, rated 3-4 weeks after treatment
[19] = Rate 0.2500 kg/ha, preemergence, rated 3-4 weeks after treatment
[20] = 0.0313 kg/ha, preemergence weeds, rated three to four weeks after treatment
[21] = 0.0625 kg/ha, preemergence weeds, rated three to four weeks after treatment
[22] = 0.1250 kg/ha, preemergence weeds, rated three to four weeks after treatment
[23] = 0.2500 kg/ha, preemergence weeds, rated three to four weeks after treatment

## Cn1c(C(F)(F)F)cc(=O)n(-c2ccc3snc(C(C)(C)C(=O)OCc4ccccc4)c3c2)c1=O [Example 396, 1,2-Benzisothiazole-3-acetic acid, 5-[3,6-dihydro-3-methyl-2,6-dioxo-4-(trifluoromethyl)-1(2H)-pyrimidinyl]-alpha,alpha-dimethyl-, benzyl ester]
[1]; [4]
  herbicidal effect rating, MOOVA: 9.0
[1]; [5]
  herbicidal effect rating, MOOVA: 9.0
[1]; [6]
  herbicidal effect rating, MOOVA: 9.0
[1]; [7]
  herbicidal effect rating, MOOVA: 9.0
Cyperus iria; [4]
  herbicidal effect rating, CYPIR: 7.0
Cyperus iria; [5]
  herbicidal effect rating, CYPIR: 8.0
Cyperus iria; [6]
  herbicidal effect rating, CYPIR: 9.0
Cyperus iria; [7]
  herbicidal effect rating, CYPIR: 9.0
[2]; [4]
  herbicidal effect rating, CYPSE: 0.0
[2]; [5]
  herbicidal effect rating, CYPSE: 0.0
[2]; [6]
  herbicidal effect rating, CYPSE: 0.0
[2]; [7]
  herbicidal effect rating, CYPSE: 6.0
[3]; [4]
  herbicidal effect rating, ECHORC: 9.0
[3]; [5]
  herbicidal effect rating, ECHORC: 9.0
[3]; [6]
  herbicidal effect rating, ECHORC: 9.0
[3]; [7]
  herbicidal effect rating, ECHORC: 9.0
Sagittaria pygmaea, L.; [4]
  herbicidal effect rating, SAGPY: 7.0
Sagittaria pygmaea, L.; [5]
  herbicidal effect rating, SAGPY: 7.0
Sagittaria pygmaea, L.; [6]
  herbicidal effect rating, SAGPY: 8.0
Sagittaria pygmaea, L.; [7]
  herbicidal effect rating, SAGPY: 8.0

## Cn1c(C(F)(F)F)cc(=O)n(-c2ccc3snc(C(=O)c4ccccc4)c3c2)c1=O [Example 449, 2,4(1,3H)-Pyrimidinedione, 3-(3-benzoyl-1,2-benzisothiazol-5-yl)-1-methyl-6-(trifluoromethyl)-]
[1]; [8]
  MOOVA: 7.0
[1]; [9]
  MOOVA: 7.0
[1]; [10]
  MOOVA: 9.0
[1]; [11]
  MOOVA: 9.0
Cyperus iria; [8]
  CYPIR: 4.0
Cyperus iria; [9]
  CYPIR: 5.0
Cyperus iria; [10]
  CYPIR: 8.0
Cyperus iria; [11]
  CYPIR: 9.0
[2]; [8]
  CYPSE: 2.0
[2]; [11]
  CYPSE: 4.0
[3]; [8]
  ECHORC: 5.0
[3]; [9]
  ECHORC: 7.0
[3]; [10]
  ECHORC: 9.0
[3]; [11]
  ECHORC: 9.0
Sagittaria pygmaea, L.; [8]
  SAGPY: 2.0
Sagittaria pygmaea, L.; [9]
  SAGPY: 4.0
Sagittaria pygmaea, L.; [10]
  SAGPY: 4.0
Sagittaria pygmaea, L.; [11]
  SAGPY: 6.0

## COc1ccc(OC)c(CC(=O)OCc2nsc3ccc(-n4c(=O)cc(C(F)(F)F)n(C)c4=O)cc23)c1 [Example 503, 2,4(1H,3H)-Pyrimidinedione, 3-[3-(hydroxymethyl)-1,2-benzisothiazol-5-yl]-1-methyl-6-(trifluoromethyl)-, (2,5-dimethoxyphenyl)acetate (ester)]
[1]; [12]
  MOOVA herbicidal rating: 7.0
[1]; [13]
  MOOVA herbicidal rating: 9.0
[1]; [14]
  MOOVA herbicidal rating: 9.0
[1]; [15]
  MOOVA herbicidal rating: 9.0
Cyperus iria; [12]
  CYPIR herbicidal rating: 0.0
Cyperus iria; [13]
  CYPIR herbicidal rating: 6.0
Cyperus iria; [14]
  CYPIR herbicidal rating: 9.0
Cyperus iria; [15]
  CYPIR herbicidal rating: 7.0
[2]; [14]
  CYPSE herbicidal rating: 5.0
[2]; [15]
  CYPSE herbicidal rating: 6.0
[3]; [12]
  ECHORC herbicidal rating: 2.0
[3]; [13]
  ECHORC herbicidal rating: 4.0
[3]; [14]
  ECHORC herbicidal rating: 6.0
[3]; [15]
  ECHORC herbicidal rating: 6.0
Sagittaria pygmaea, L.; [12]
  SAGPY herbicidal rating: 0.0
Sagittaria pygmaea, L.; [13]
  SAGPY herbicidal rating: 3.0
Sagittaria pygmaea, L.; [14]
  SAGPY herbicidal rating: 4.0
Sagittaria pygmaea, L.; [15]
  SAGPY herbicidal rating: 8.0

## Cc1ccc(OCC(=O)OCC2CCOC2)c(-c2nsc3ccc(-n4c(=O)cc(C(F)(F)F)n(C)c4=O)cc23)c1 (racemic) [Example 535, Acetic acid, {{2-{5-[3,6-dihydro-3-methyl-2,6-dioxo-4-(trifluoromethyl)-1(2H)-pyrimidinyl]-1,2-benzisothiazol-3-yl}-p-tolyl}oxy}-, (tetrahydro-3-furyl)methyl ester, DL-]
[1]; [16]
  herbicidal effect rating, MOOVA: 6.0
[1]; [17]
  herbicidal effect rating, MOOVA: 9.0
[1]; [18]
  herbicidal effect rating, MOOVA: 9.0
[1]; [19]
  herbicidal effect rating, MOOVA: 9.0
Cyperus iria; [16]
  herbicidal effect rating, CYPIR: 0.0
Cyperus iria; [17]
  herbicidal effect rating, CYPIR: 6.0
Cyperus iria; [18]
  herbicidal effect rating, CYPIR: 9.0
Cyperus iria; [19]
  herbicidal effect rating, CYPIR: 9.0
[2]; [16]
  herbicidal effect rating, CYPSE: 0.0
[2]; [17]
  herbicidal effect rating, CYPSE: 3.0
[2]; [18]
  herbicidal effect rating, CYPSE: 5.0
[2]; [19]
  herbicidal effect rating, CYPSE: 5.0
[3]; [16]
  herbicidal effect rating, ECHORC: 0.0
[3]; [17]
  herbicidal effect rating, ECHORC: 3.0
[3]; [18]
  herbicidal effect rating, ECHORC: 3.0
[3]; [19]
  herbicidal effect rating, ECHORC: 4.0
Sagittaria pygmaea, L.; [16]
  herbicidal effect rating, SAGPY: 0.0
Sagittaria pygmaea, L.; [17]
  herbicidal effect rating, SAGPY: 0.0
Sagittaria pygmaea, L.; [18]
  herbicidal effect rating, SAGPY: 3.0
Sagittaria pygmaea, L.; [19]
  herbicidal effect rating, SAGPY: 3.0

## 2,4(1H,3H)-Pyrimidinedione, 1-methyl-3-[(2-methylbutyryl)-1,2-benzisothiazol-5-yl]-6-(trifluoromethyl)- [Example 433]
[1]; [8]
  MOOVA: 8.5
[1]; [9]
  MOOVA: 9.0
[1]; [10]
  MOOVA: 9.0
[1]; [11]
  MOOVA: 9.0
Cyperus iria; [8]
  CYPIR: 5.5
Cyperus iria; [9]
  CYPIR: 8.5
Cyperus iria; [10]
  CYPIR: 9.0
Cyperus iria; [11]
  CYPIR: 9.0
[2]; [8]
  CYPSE: 0.0
[2]; [9]
  CYPSE: 6.0
[2]; [10]
  CYPSE: 7.5
[2]; [11]
  CYPSE: 7.5
[3]; [8]
  ECHORC: 8.0
[3]; [9]
  ECHORC: 9.0
[3]; [10]
  ECHORC: 9.0
[3]; [11]
  ECHORC: 9.0
Sagittaria pygmaea, L.; [8]
  SAGPY: 2.0
Sagittaria pygmaea, L.; [9]
  SAGPY: 4.5
Sagittaria pygmaea, L.; [10]
  SAGPY: 6.0
Sagittaria pygmaea, L.; [11]
  SAGPY: 7.0

## CC(C)=NOC(=O)COc1ccc(C)cc1-c1nsc2ccc(-n3c(=O)cc(C(F)(F)F)n(C)c3=O)cc12 [Example 194]
[1]; [20]
  herbicidal effect rating, MOOVA: 9.0
[1]; [21]
  herbicidal effect rating, MOOVA: 9.0
[1]; [22]
  herbicidal effect rating, MOOVA: 9.0
[1]; [23]
  herbicidal effect rating, MOOVA: 9.0
Cyperus iria; [20]
  herbicidal effect rating, CYPIR: 0.0
Cyperus iria; [21]
  herbicidal effect rating, CYPIR: 0.0
Cyperus iria; [22]
  herbicidal effect rating, CYPIR: 0.0
Cyperus iria; [23]
  herbicidal effect rating, CYPIR: 0.0
[2]; [20]
  herbicidal effect rating, CYPSE: 0.0
[2]; [21]
  herbicidal effect rating, CYPSE: 0.0
[2]; [22]
  herbicidal effect rating, CYPSE: 0.0
[2]; [23]
  herbicidal effect rating, CYPSE: 0.0
[3]; [20]
  herbicidal effect rating, ECHORC: 0.0
[3]; [21]
  herbicidal effect rating, ECHORC: 2.0
[3]; [22]
  herbicidal effect rating, ECHORC: 6.0
[3]; [23]
  herbicidal effect rating, ECHORC: 9.0
Sagittaria pygmaea, L.; [20]
  herbicidal effect rating, SAGPY: 0.0
Sagittaria pygmaea, L.; [21]
  herbicidal effect rating, SAGPY: 0.0
Sagittaria pygmaea, L.; [22]
  herbicidal effect rating, SAGPY: 0.0
Sagittaria pygmaea, L.; [23]
  herbicidal effect rating, SAGPY: 0.0

## C#CCC(c1nsc2ccc(-n3c(=O)cc(C(F)(F)F)n(C)c3=O)cc12)S(C)(=O)=O (stereo not drawn) [Example 603, 2,4(1H,3H)-Pyrimidinedione, 1-methyl-3-{3-[1-(methylsulfonyl)-3-butynyl]-1,2-benzisothiazol-5-yl}-6-(trifluoromethyl)-]
[1]; [4]
  herbicidal effect rating, MOOVA: 7.0
[1]; [5]
  herbicidal effect rating, MOOVA: 7.0
[1]; [6]
  herbicidal effect rating, MOOVA: 9.0
[1]; [7]
  herbicidal effect rating, MOOVA: 9.0
Cyperus iria; [4]
  herbicidal effect rating, CYPIR: 5.0
Cyperus iria; [6]
  herbicidal effect rating, CYPIR: 6.0
Cyperus iria; [7]
  herbicidal effect rating, CYPIR: 7.0
[2]; [4]
  herbicidal effect rating, CYPSE: 0.0
[2]; [6]
  herbicidal effect rating, CYPSE: 8.0
[2]; [7]
  herbicidal effect rating, CYPSE: 9.0
[3]; [4]
  herbicidal effect rating, ECHORC: 0.0
[3]; [5]
  herbicidal effect rating, ECHORC: 4.0
[3]; [6]
  herbicidal effect rating, ECHORC: 6.0
[3]; [7]
  herbicidal effect rating, ECHORC: 8.0
Sagittaria pygmaea, L.; [4]
  herbicidal effect rating, SAGPY: 0.0
Sagittaria pygmaea, L.; [5]
  herbicidal effect rating, SAGPY: 0.0
Sagittaria pygmaea, L.; [6]
  herbicidal effect rating, SAGPY: 2.0
Sagittaria pygmaea, L.; [7]
  herbicidal effect rating, SAGPY: 4.0

## C=CCC(c1nsc2ccc(-n3c(=O)cc(C(F)(F)F)n(C)c3=O)cc12)S(C)(=O)=O (stereo not drawn) [Example 602, 2,4(1H,3H)-Pyrimidinedione, 1-methyl-3-{3-[1-(methylsulfonyl)-3-butenyl]-1,2-benzisothiazol-5-yl}-6-(trifluoromethyl)-]
[1]; [4]
  herbicidal effect rating, MOOVA: 7.0
[1]; [5]
  herbicidal effect rating, MOOVA: 7.0
[1]; [6]
  herbicidal effect rating, MOOVA: 8.0
[1]; [7]
  herbicidal effect rating, MOOVA: 9.0
Cyperus iria; [4]
  herbicidal effect rating, CYPIR: 3.0
Cyperus iria; [5]
  herbicidal effect rating, CYPIR: 3.0
Cyperus iria; [6]
  herbicidal effect rating, CYPIR: 5.0
Cyperus iria; [7]
  herbicidal effect rating, CYPIR: 5.0
[2]; [5]
  herbicidal effect rating, CYPSE: 0.0
[2]; [6]
  herbicidal effect rating, CYPSE: 7.0
[2]; [7]
  herbicidal effect rating, CYPSE: 9.0
[3]; [4]
  herbicidal effect rating, ECHORC: 0.0
[3]; [5]
  herbicidal effect rating, ECHORC: 5.0
[3]; [6]
  herbicidal effect rating, ECHORC: 9.0
[3]; [7]
  herbicidal effect rating, ECHORC: 9.0
Sagittaria pygmaea, L.; [4]
  herbicidal effect rating, SAGPY: 0.0
Sagittaria pygmaea, L.; [5]
  herbicidal effect rating, SAGPY: 0.0
Sagittaria pygmaea, L.; [6]
  herbicidal effect rating, SAGPY: 0.0
Sagittaria pygmaea, L.; [7]
  herbicidal effect rating, SAGPY: 3.0
